Source: patent US5545618A, “GLP-1 analogs useful for diabetes treatment” (priority 1993, dated 1996)
Where two headings read alike, the source gives them in different places.

How the values were obtained:
RIN 1046-38 cells = tested on: RIN 1046-38 cells
Experimental: An additional test for potency of the compounds of the invention measures their ability to stimulate cAMP production in RIN 1046-38 cells. This assay can be conducted as follows:
On day 1, 5×10^5 RIN 1046-38 cells (Drucker, D. J., et al., Proc Natl Acad Sci USA (1987) 84:3434-3438) are seeded into individual wells of 6-well dishes with 2.5 mL M199 culture medium. On day 4, cells are re-fed with fresh medium and on day 5 the assay is performed. […] Assays are only performed on cell passage ≤24.
At time -60 min, monolayers are washed twice with 2.5 mL PBS, and medium is changed to 1.0 mL of DMEM medium plus 4.5 g/l glucose and 0.1% BSA (assay medium). At 0 time, medium is aspirated and fresh assay medium, 1.0 mL, containing test compound is added. Test compound is added in 50 ul volume of PBS plus 0.1% BSA; controls are added in vehicle alone. Incubation is continued for 0 to 60 min.
At termination, conditioned medium and monolayer are harvested to measure both extra- and intracellular cAMP content. For extracellular measurement, medium is removed and centrifuged to remove any cellular debris. For intracellular determination, after medium removal, 1.0 mL of ice cold 95% ethanol is added to monolayer. Cells are collected by scraping, lysed by two cycles of quick freeze/thawing using liquid N2, and cell debris then removed by centrifugation. Aliquots (1/40th well content) of conditioned medium and ethanol cell extract are measured in duplicate for cAMP levels using an RIA kit by the acetylated protocol.
Insulin secretion can also be measured by the method described by Holst, J. J., et al. FEBS Letters (1987) 211:169-174 (supra). Also useful as an assay for insulinotropic effect is the measurement of stimulation of adenylate cyclase in the RIN 1046-38 cell line. Drucker, D. J. et al., Proc Natl Acad Sci USA (1987) 84:3434-3438 (supra).

[1] = degradation in plasma by RP-HPLC; assay type: in vitro ADME; settings: incubation in plasma for 60 minutes; also: key: +: degradation was not observed; -: was complete after this time
[2] = assay type: in vitro ADME
Experimental: Polyclonal antisera were raised in New Zealand White rabbits against a synthetic peptide fragment corresponding to residues 24 to 37 of GLP-1(7-37) using the method of Mosjoy, S. et al., J Biol Chem (1986) 261:11880-11889. Initial immunizations were into the inguinal lymph nodes and used Freund's complete adjuvant. Two subcutaneous boosts were performed at 1 week intervals after the initial immunization and used Freund's incomplete adjuvant. For a single immunization or boost 100 μg peptide and 100 μg methylated BSA dissolved in 0.3 mL phosphate-buffered saline (PBS) were emulsified with 0.9 mL adjuvant. Bleeds (50 mL) began at week 6 after the initial immunization and continued at 1 month intervals thereafter. Repeat boosts were performed as above when titers dropped noticeably from the level of the previous bleed.

Molecule: CC[C@H](C)[C@H](NC(=O)[C@H](Cc1ccccc1)NC(=O)[C@H](CCC(=O)O)NC(=O)[C@H](CCCCN)NC(=O)[C@H](C)NC(=O)[C@H](C)NC(=O)[C@H](CCC(N)=O)NC(=O)CNC(=O)[C@H](CCC(=O)O)NC(=O)[C@H](CC(C)C)NC(=O)[C@H](Cc1ccc(O)cc1)NC(=O)[C@H](CO)NC(=O)[C@H](CO)NC(=O)[C@@H](NC(=O)[C@H](CC(=O)O)NC(=O)[C@H](CO)NC(=O)[C@@H](NC(=O)[C@H](Cc1ccccc1)NC(=O)[C@@H](NC(=O)CNC(=O)[C@@H](CC(=O)O)NC(=O)[C@H](C)NC(=O)[C@@H](N)Cc1c[nH]cn1)[C@@H](C)O)[C@@H](C)O)C(C)C)C(=O)N[C@@H](C)C(=O)N[C@@H](Cc1c[nH]c2ccccc12)C(=O)N[C@@H](CC(C)C)C(=O)N[C@H](C(=O)N[C@@H](CCCCN)C(=O)NCC(=O)N[C@@H](CCCNC(=N)N)C(=O)NCC(=O)O)C(C)C [(D^.dagger.)^9 -GLP-1(7-37)]
- ED50 nM Duplicate Assays (first value) (RIN 1046-38 cells): 0.90 nM
- ED50 nM Duplicate Assays (second value) (RIN 1046-38 cells): 0.90 nM
- Resistance to Degradation [1]: -

Molecule: CC[C@H](C)[C@H](NC(=O)[C@H](Cc1ccccc1)NC(=O)[C@H](CCC(=O)O)NC(=O)[C@H](CCCCN)NC(=O)[C@H](C)NC(=O)[C@H](C)NC(=O)[C@H](CCC(N)=O)NC(=O)CNC(=O)[C@H](CCC(=O)O)NC(=O)[C@H](CC(C)C)NC(=O)[C@H](Cc1ccc(O)cc1)NC(=O)[C@H](CO)NC(=O)[C@H](CO)NC(=O)[C@@H](NC(=O)[C@H](CC(=O)O)NC(=O)[C@H](CO)NC(=O)[C@@H](NC(=O)[C@H](Cc1ccccc1)NC(=O)[C@@H](NC(=O)CNC(=O)[C@H](CCC(=O)O)NC(=O)[C@H](C)NC(=O)[C@@H](N)Cc1ccc(O)cc1)[C@@H](C)O)[C@@H](C)O)C(C)C)C(=O)N[C@@H](C)C(=O)N[C@@H](Cc1c[nH]c2ccccc12)C(=O)N[C@@H](CC(C)C)C(=O)N[C@H](C(=O)N[C@@H](CCCCN)C(=O)NCC(=O)N[C@@H](CCCNC(=N)N)C(=O)NCC(=O)O)C(C)C [(Y)^7 -GLP-1(7-37)]
- Resistance to Degradation [1]: -

Molecule: CC[C@H](C)[C@H](NC(=O)[C@H](Cc1ccccc1)NC(=O)[C@H](CCC(=O)O)NC(=O)[C@H](CCCCN)NC(=O)[C@H](C)NC(=O)[C@H](C)NC(=O)[C@H](CCC(N)=O)NC(=O)CNC(=O)[C@H](CCC(=O)O)NC(=O)[C@H](CC(C)C)NC(=O)[C@H](Cc1ccc(O)cc1)NC(=O)[C@H](CO)NC(=O)[C@H](CO)NC(=O)[C@@H](NC(=O)[C@H](CC(=O)O)NC(=O)[C@H](CO)NC(=O)[C@@H](NC(=O)[C@H](Cc1ccccc1)NC(=O)[C@@H](NC(=O)CNC(=O)[C@H](CCC(=O)O)NC(=O)[C@H](C)NC(=O)[C@H](Cc1c[nH]cn1)NC(C)=O)[C@@H](C)O)[C@@H](C)O)C(C)C)C(=O)N[C@@H](C)C(=O)N[C@@H](Cc1c[nH]c2ccccc12)C(=O)N[C@@H](CC(C)C)C(=O)N[C@H](C(=O)N[C@@H](CCCCN)C(=O)NCC(=O)N[C@@H](CCCNC(=N)N)C(=O)NCC(=O)O)C(C)C [(N-acetyl-H)^7 -GLP-1(7-37)]
- Resistance to Degradation [1]: +

Molecule: GLP-1(7-37)
- ED50 nM Duplicate Assays (first value) (RIN 1046-38 cells; cAMP stimulation in RIN 1046-38 cells, first of duplicate assays): 0.16 nM
- ED50 nM Duplicate Assays (second value) (RIN 1046-38 cells; cAMP stimulation in RIN 1046-38 cells, second of duplicate assays): 0.25 nM
- ability of recovered fragment to inhibit binding of radiolabeled GLP-1(7-37) to carboxy terminal-specific antibody [2]: no diminution
